Measurements: patent US8323708B2, “Poultry meat and eggs comprising beneficial fatty acids” (Monsanto Technology LLC, priority 2009, dated 2012)

What was measured:
[1] = 21 day broiler study: long chain fatty acid composition of skinless breast meat; type: in vivo, broiler chickens; conditions: day 21-42
Method: (§1) A 21 day study was conducted to determine whether broiler chickens fed a diet containing SDA could produce meat with elevated levels of omega-3 fatty acids including EPA and DHA.
(§2) Fifty pens of four birds per pen were used. There were 25 pens of males and 25 pens of females. Five pens of males and five pens of females were each fed one of five treatment diets from day 21 to 42 days of age. Prior to day 21 all birds were fed a standard 22% protein starter diet formulated to meet NRC (1994) nutrient requirements (shown in Table 16 as “S” diet). The feed prepared was feed as a crumble.
(§3) The test diets were prepared and fed in mash form. All broilers had ad libitum access to feed and water for the duration of the 21 day study. The composition of the diets (Table 4) and premixes (Table 5) are provided below.
(§4) To help prevent oxidation of the fatty acids, 0.05% ethoxyquin (Rendox) was added to each premix. Premixes were manufactured within 3 days of arrival of ethyl esters. To limit oxidation associated with storage, diets were manufactured once and stored in a refrigerated cooler at 4° C. during the duration of the study.
(§5) For male pens only, four out of the five pens were randomly selected. Two birds from each of these pens were randomly selected (eights birds per treatment). The right and left thigh and right and left breast from these 40 birds were bagged and labeled and frozen. The right breast and thigh samples were analyzed for shelf life stability and the left skinless breast and left boneless, skinless thigh from these same birds were analyzed for fatty acid composition.

[2] = 21 day broiler study: long chain fatty acid composition of thigh meat; type: in vivo, broiler chickens; conditions: boneless skinless thigh meat, day 21-42
Method: as §1, §2, §3, §4, §5

[3] = Laying hen study: long chain fatty acid composition of eggs; type: in vivo, laying hens; conditions: total egg
Method: A study was conducted to determine whether laying hens fed a diet enriched in stearidonic acid could produce eggs with elevated levels of beneficial omega-3 fatty acids including EPA and DHA. Mature laying hens […] were randomly allotted to seven dietary treatments (16 hens/treatment) and were fed diets containing the following levels of n-3 fatty acids as described in Table 28 for four weeks. Sixteen birds were given each treatment. Four birds were randomly selected out of the 16 per treatment to obtain eggs during week 4 for fatty acid composition. […] The laying hens had ad libitum access to feed and water. The composition of the diets (Table 29) and premixes (Table 30) are provided below. To help prevent oxidation of the fatty acids, 0.05% ethoxyquin (Rendox) was added to each premix. Premixes were manufactured within 3 days of arrival of ethyl esters. To limit the oxidation associated with storage, diets were manufactured once and stored in a refrigerated cooler at 4° C. during the duration of the study. Eggs collected during […] (days 22-28) were maintained under refrigerated conditions until all eggs for that week were collected. Eggs were sorted by hen and treatment. Two eggs per hen from 4 hens per treatment were taken. The two eggs were weighed individually, cracked and the shell weighed. The difference between fresh egg and shell represented liquid egg weight and served as the basis for further calculations. The liquid fraction from each of the two eggs per hen were combined in a sample cup and homogenized. Samples were analyzed for fatty acids by gas chromatography.

With `CC/C=C\C/C=C\C/C=C\C/C=C\CCCCC(=O)OCC` [SDA Ethyl Ester] the “ALA (C18:3n-3)” value ([1]; ethyl ester 0.416% of diet) was 10 mg/100 g, the “DHA (C22:6n-3)” value ([1]; ethyl ester 0.416% of diet) was 10 mg/100 g and the “DPA (C22:5 n-3)” value ([1]; ethyl ester 0.416% of diet) was 22.5 mg/100 g. The “EPA (C20:5n-3)” value ([1]; ethyl ester 0.416% of diet) was 20 mg/100 g, the “Omega 6/Omega 3 ratio” value ([1]; ethyl ester 0.416% of diet) was 2.9 and the “SDA (C18:4n-3)” value ([1]; ethyl ester 0.416% of diet) was 22.5 mg/100 g. For the same molecule, the “Total omega 3's” value ([1]; ethyl ester 0.416% of diet) was 85 mg/100 g, the “ALA (C18:3n-3)” value ([1]; ethyl ester 0.832% of diet) was 10 mg/100 g and the “DHA (C22:6n-3)” value ([1]; ethyl ester 0.832% of diet) was 10 mg/100 g. For the same molecule, the “DPA (C22:5 n-3)” value ([1]; ethyl ester 0.832% of diet) was 30 mg/100 g, the “EPA (C20:5n-3)” value ([1]; ethyl ester 0.832% of diet) was 27.5 mg/100 g and the “Omega 6/Omega 3 ratio” value ([1]; ethyl ester 0.832% of diet) was 2.0. The “SDA (C18:4n-3)” value ([1]; ethyl ester 0.832% of diet) was 40 mg/100 g, the “Total omega 3's” value ([1]; ethyl ester 0.832% of diet) was 117.5 mg/100 g and the “ALA (C18:3n-3)” value ([2]; ethyl ester 0.416% of diet) was 82.5 mg/100 g. For the same molecule, the “DHA (C22:6n-3)” value ([2]; ethyl ester 0.416% of diet) was 20 mg/100 g, the “DPA (C22:5 n-3)” value ([2]; ethyl ester 0.416% of diet) was 37.5 mg/100 g and the “EPA (C20:5n-3)” value ([2]; ethyl ester 0.416% of diet) was 30 mg/100 g. The “Omega 6/Omega 3 ratio” value ([2]; ethyl ester 0.416% of diet) was 4.4, the “SDA (C18:4n-3)” value ([2]; ethyl ester 0.416% of diet) was 187.5 mg/100 g and the “Total omega 3's” value ([2]; ethyl ester 0.416% of diet) was 362.5 mg/100 g. For the same molecule, the “ALA (C18:3n-3)” value ([2]; ethyl ester 0.832% of diet) was 86.7 mg/100 g, the “DHA (C22:6n-3)” value ([2]; ethyl ester 0.832% of diet) was 20 mg/100 g and the “DPA (C22:5 n-3)” value ([2]; ethyl ester 0.832% of diet) was 50 mg/100 g. For the same molecule, the “EPA (C20:5n-3)” value ([2]; ethyl ester 0.832% of diet) was 50 mg/100 g, the “Omega 6/Omega 3 ratio” value ([2]; ethyl ester 0.832% of diet) was 2.7 and the “SDA (C18:4n-3)” value ([2]; ethyl ester 0.832% of diet) was 386.7 mg/100 g. For the same molecule, the “Total omega 3's” value ([2]; ethyl ester 0.832% of diet) was 593.3 mg/100 g, the “ALA (C18:3n-3)” value ([3]; 0.416% of diet) was 42.5 mg/100 g and the “DHA (C22:6n-3)” value ([3]; 0.416% of diet) was 150 mg/100 g. For the same molecule, the “DPA (C22:5 n-3)” value ([3]; 0.416% of diet) was 35 mg/100 g, the “EPA (C20:5n-3)” value ([3]; 0.416% of diet) was 10 mg/100 g and the “Omega 6/Omega 3 ratio” value ([3]; 0.416% of diet) was 5.0. For the same molecule, the “SDA (C18:4n-3)” value ([3]; 0.416% of diet) was 10 mg/100 g, the “Total omega 3's” value ([3]; 0.416% of diet) was 247.5 mg/100 g and the “ALA (C18:3n-3)” value ([3]; 0.832% of diet) was 55 mg/100 g. The “DHA (C22:6n-3)” value ([3]; 0.832% of diet) was 182.5 mg/100 g, the “DPA (C22:5 n-3)” value ([3]; 0.832% of diet) was 60 mg/100 g and the “EPA (C20:5n-3)” value ([3]; 0.832% of diet) was 22.5 mg/100 g. For the same molecule, the “Omega 6/Omega 3 ratio” value ([3]; 0.832% of diet) was 3.7, the “SDA (C18:4n-3)” value ([3]; 0.832% of diet) was 25 mg/100 g and the “Total omega 3's” value ([3]; 0.832% of diet) was 360 mg/100 g.
